Laboratory results: PMC4300089, “Structure-Guided Design of Selective Epac1 and Epac2 Agonists” (PLoS Biology, 2015)

How the values were obtained:
PKA-Iβ = target: T1, PKA-Iβ (Homo sapiens, UniProt P31321); experiment: PKA activity assay, PKA-Iβ; assay type: biochemical; details: for A (PKA activity): PKAIβ
T1 construct: made in house
Experimental: The recombinant human PKA catalytic subunit (Cα1) and the four human PKA regulatory subunits (RIα, RIβ, RIIα, RIIβ) were expressed, purified, and characterized as described. […] PKA holoenzymes were formed by mixing the R- and C-subunit at a molar ratio of 1.2:1 and extensive dialysis against 20 mM MOPS (pH 7.0), 150 mM NaCl, 2.5 mM β-mercaptoethanol, supplemented with 1 mM ATP and 10 mM MgCl2 for PKA-I at 4°C overnight. PKA holoenzymes were used at about 20 nM for the activation assay. The apparent activation constants (Kact) were determined by fitting the concentration-dependent activity to a sigmoid dose-response model.

Epac1 = target: T2, Epac1 (Homo sapiens, UniProt O95398); set-up: method as in PMID 12888551; details: footnote c, see also ref 13; cited from earlier work
T2 construct: made in house
T2 sequence (O95398 150-881 isoform O95398-3): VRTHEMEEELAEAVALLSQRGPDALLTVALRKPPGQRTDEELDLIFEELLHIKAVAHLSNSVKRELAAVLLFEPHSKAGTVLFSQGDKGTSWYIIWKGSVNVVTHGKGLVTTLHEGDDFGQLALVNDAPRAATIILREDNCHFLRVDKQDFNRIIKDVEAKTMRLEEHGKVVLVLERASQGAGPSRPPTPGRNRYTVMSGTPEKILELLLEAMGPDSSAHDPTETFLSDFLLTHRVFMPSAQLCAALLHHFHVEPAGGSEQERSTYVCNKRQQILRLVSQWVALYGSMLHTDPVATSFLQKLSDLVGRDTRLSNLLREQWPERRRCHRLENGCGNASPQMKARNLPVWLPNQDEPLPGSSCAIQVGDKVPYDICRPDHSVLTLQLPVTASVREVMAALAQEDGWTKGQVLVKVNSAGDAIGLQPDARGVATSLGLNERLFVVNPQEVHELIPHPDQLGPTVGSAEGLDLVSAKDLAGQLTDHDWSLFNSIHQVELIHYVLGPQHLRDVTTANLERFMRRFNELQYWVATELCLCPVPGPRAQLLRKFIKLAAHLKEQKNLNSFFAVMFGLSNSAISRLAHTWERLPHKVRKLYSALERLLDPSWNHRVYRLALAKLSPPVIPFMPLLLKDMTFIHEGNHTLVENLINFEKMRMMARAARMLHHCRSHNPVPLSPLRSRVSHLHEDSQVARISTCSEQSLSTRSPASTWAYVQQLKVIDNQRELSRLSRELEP

T1 sequence (P31321 whole entry): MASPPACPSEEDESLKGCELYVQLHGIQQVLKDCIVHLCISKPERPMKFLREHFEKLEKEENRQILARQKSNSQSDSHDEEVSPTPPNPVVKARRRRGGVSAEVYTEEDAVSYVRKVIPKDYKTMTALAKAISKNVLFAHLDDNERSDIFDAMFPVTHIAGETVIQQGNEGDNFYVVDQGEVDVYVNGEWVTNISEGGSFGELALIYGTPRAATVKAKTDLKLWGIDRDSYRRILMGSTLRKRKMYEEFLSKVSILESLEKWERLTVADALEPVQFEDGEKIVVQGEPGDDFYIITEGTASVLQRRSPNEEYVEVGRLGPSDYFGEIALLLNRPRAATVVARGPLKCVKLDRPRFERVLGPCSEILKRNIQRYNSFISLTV

## COC1C2OP(=O)(O)OCC2OC1n1c(Sc2ccc(Cl)cc2)nc2c(N)ncnc21 [D-007, 8-pCPT-2′-O-Me-cAMP, reference compound]
PKA-Iβ; PKA-Iβ, read-out: Kact
  EC50: 18 µM
PKA-Iβ; concentration 1 μM
  A (PKA activity): 5.38 U/mg
PKA-Iβ; concentration 1.00E+01 μM
  A (PKA activity): 9.18 U/mg
PKA-Iβ; concentration 1.00E+03 μM
  A (PKA activity): 1.84E+01 U/mg
PKA-Iβ; concentration 1.00E-01 μM
  A (PKA activity): 5.43 U/mg
PKA-Iβ; concentration 1.00E-03 μM
  A (PKA activity): 4.7 U/mg
PKA-Iβ; concentration 1.00E-05 μM
  A (PKA activity): 4.53 U/mg
PKA-Iβ; concentration 2.50E+01 μM
  A (PKA activity): 1.31E+01 U/mg
PKA-Iβ; concentration 2.50E+02 μM
  A (PKA activity): 1.60E+01 U/mg
PKA-Iβ; concentration 2.50E+03 μM
  A (PKA activity): 1.79E+01 U/mg
Epac1
  AC50: 1.8 µM
